Experimental data published in ChEMBL document CHEMBL1201862, “PubChem BioAssay data set” (2004).
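Results reflect a 48-hour exposure of cells in 96-well plates to compound at five concentrations. GI50 is the concentration that inhibits growth by half.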 Active and inactive are the calls of the source. Rule as the data show it: active = GI50 up to about 1.1 µM and inactive = higher.

Tests used:
Assay in all cases: NCI tumour cell line growth inhibition, 48 h
UACC-257 = tested on: UACC-257
A549 = tested on: A549
LOX IMVI = tested on: LOX IMVI
SF-268 = tested on: SF-268
COLO 205 = tested on: COLO 205
SK-MEL-2 = tested on: SK-MEL-2
TK-10 = tested on: TK-10
HT-29 = tested on: HT-29
HCT-116 = tested on: HCT-116
K562 = tested on: K562
RPMI-8226 = tested on: RPMI-8226
SK-MEL-28 = tested on: SK-MEL-28
Malme-3M = tested on: Malme-3M
NCI-H522 = tested on: NCI-H522
NCI-H226 = tested on: NCI-H226
HL-60 = tested on: HL-60
HCC 2998 = tested on: HCC 2998
SR = tested on: SR

Measured: GI50

C[C@@]12CCCC(=O)N1[C@@H](CO)C(c1ccccc1)O2 (some centres undefined)
inactive: UACC-257 > 100 µM | A549 > 100 µM | LOX IMVI > 100 µM | SF-268 > 100 µM | COLO 205 > 100 µM | SK-MEL-2 > 100 µM | TK-10 > 100 µM | HT-29 > 100 µM | HCT-116 > 100 µM | K562 > 100 µM | RPMI-8226 > 100 µM | SK-MEL-28 > 100 µM | Malme-3M > 100 µM

Cc1cn(C2CC(n3cncn3)C(C(C)O)O2)c(=O)[nH]c1=O (centres undefined)
inactive: UACC-257 > 100 µM | NCI-H522 > 100 µM | NCI-H226 > 100 µM | A549 > 100 µM | HL-60 > 100 µM | HCC 2998 > 100 µM | LOX IMVI > 100 µM | SF-268 > 100 µM | COLO 205 > 100 µM | SK-MEL-2 > 100 µM | TK-10 > 100 µM | HT-29 > 100 µM | HCT-116 > 100 µM | K562 > 100 µM | RPMI-8226 > 100 µM | SK-MEL-28 > 100 µM | Malme-3M > 100 µM

O=C1N(c2ccccc2)C(=O)C2(SC=NN2Cc2ccccc2)N1c1ccccc1 (centres undefined)
inactive: UACC-257 > 100 µM | NCI-H522 > 100 µM | NCI-H226 > 100 µM | A549 > 100 µM | HL-60 51.2 µM | HCC 2998 > 100 µM | LOX IMVI > 100 µM | SR 92.7 µM | SF-268 > 100 µM | COLO 205 > 100 µM | TK-10 > 100 µM | HT-29 > 100 µM | HCT-116 > 100 µM | K562 > 100 µM | SK-MEL-28 > 100 µM | Malme-3M > 100 µM

CC(C)NC1CCCCC2c3cc(F)ccc3[C@]12O (some centres undefined)
inactive: UACC-257 > 100 µM | NCI-H522 > 100 µM | NCI-H226 > 100 µM | A549 > 100 µM | HL-60 > 100 µM | HCC 2998 > 100 µM | LOX IMVI > 100 µM | SF-268 > 100 µM | COLO 205 > 100 µM | SK-MEL-2 > 100 µM | TK-10 > 100 µM | HT-29 > 100 µM | HCT-116 > 100 µM | K562 > 100 µM | RPMI-8226 > 100 µM | SK-MEL-28 > 100 µM | Malme-3M > 100 µM

CN1C2C=C(c3ccccc3)CC1CC2 (centres undefined)
inactive: UACC-257 > 100 µM | NCI-H522 > 100 µM | A549 > 100 µM | HL-60 > 100 µM | HCC 2998 > 100 µM | LOX IMVI > 100 µM | SR > 100 µM | SF-268 > 100 µM | COLO 205 > 100 µM | SK-MEL-2 > 100 µM | TK-10 > 100 µM | HT-29 > 100 µM | HCT-116 > 100 µM | K562 > 100 µM | RPMI-8226 > 100 µM | SK-MEL-28 > 100 µM | Malme-3M > 100 µM

CNS(=O)(=O)NN(C)S(=O)(=O)c1ccc(OC)cc1
inactive: UACC-257 > 100 µM | NCI-H522 > 100 µM | NCI-H226 > 100 µM | A549 > 100 µM | HL-60 > 100 µM | HCC 2998 > 100 µM | LOX IMVI 91.8 µM | SR > 100 µM | SF-268 > 100 µM | COLO 205 > 100 µM | SK-MEL-2 > 100 µM | TK-10 > 100 µM | HT-29 > 100 µM | HCT-116 > 100 µM | K562 > 100 µM | RPMI-8226 > 100 µM | Malme-3M > 100 µM

Cc1cc2c(=O)cc(-c3ccc(F)cc3)oc2c(C(=O)O)c1C
inactive: UACC-257 > 100 µM | NCI-H522 > 100 µM | NCI-H226 > 100 µM | A549 > 100 µM | LOX IMVI > 100 µM | SF-268 > 100 µM | COLO 205 > 100 µM | SK-MEL-2 > 100 µM | TK-10 > 100 µM | HT-29 > 100 µM | HCT-116 > 100 µM | K562 > 100 µM | RPMI-8226 > 100 µM | SK-MEL-28 > 100 µM | Malme-3M > 100 µM

C[C@@H](c1ccccc1)N(CC#N)C1CCC[C@H]1O (some centres undefined)
inactive: UACC-257 > 100 µM | NCI-H522 > 100 µM | NCI-H226 > 100 µM | A549 > 100 µM | HL-60 > 100 µM | HCC 2998 > 100 µM | LOX IMVI > 100 µM | SF-268 > 100 µM | COLO 205 > 100 µM | SK-MEL-2 > 100 µM | TK-10 > 100 µM | HT-29 > 100 µM | HCT-116 > 100 µM | K562 > 100 µM | RPMI-8226 > 100 µM | SK-MEL-28 > 100 µM | Malme-3M > 100 µM

CC1(C)CC2CC(CC(C)(C)C2=O)C1=O
inactive: UACC-257 > 100 µM | A549 > 100 µM | HL-60 > 100 µM | HCC 2998 > 100 µM | LOX IMVI > 100 µM | SR > 100 µM | SF-268 > 100 µM | COLO 205 > 100 µM | SK-MEL-2 > 100 µM | TK-10 > 100 µM | HT-29 > 100 µM | HCT-116 > 100 µM | K562 > 100 µM | RPMI-8226 > 100 µM | SK-MEL-28 > 100 µM | Malme-3M > 100 µM

O=C(O)CCNS(=O)(=O)c1ccc([N+](=O)[O-])cc1
inactive: UACC-257 > 100 µM | NCI-H522 > 100 µM | NCI-H226 > 100 µM | A549 > 100 µM | HL-60 > 100 µM | HCC 2998 > 100 µM | LOX IMVI > 100 µM | SF-268 > 100 µM | COLO 205 > 100 µM | SK-MEL-2 > 100 µM | TK-10 > 100 µM | HT-29 > 100 µM | K562 > 100 µM | RPMI-8226 > 100 µM | SK-MEL-28 > 100 µM | Malme-3M > 100 µM

COC(=O)C1CC(C(=O)OC)c2nc3cc([N+](=O)[O-])ccc3nc21 (centres undefined)
inactive: UACC-257 55.6 µM | NCI-H522 7.93 µM | NCI-H226 > 100 µM | A549 43.1 µM | HL-60 7.23 µM | HCC 2998 30.5 µM | LOX IMVI 22.3 µM | SF-268 26.4 µM | COLO 205 49.1 µM | SK-MEL-2 > 100 µM | TK-10 > 100 µM | HT-29 51.3 µM | HCT-116 33.7 µM | K562 14.7 µM | RPMI-8226 26.1 µM | SK-MEL-28 > 77.3 µM | Malme-3M > 100 µM

Cc1ccc(-c2nnc(-c3nn(-c4ccccc4)c4nc5ccccc5nc34)o2)cc1
inactive: UACC-257 35.9 µM | NCI-H522 17.9 µM | NCI-H226 13.2 µM | A549 13.3 µM | HL-60 11 µM | LOX IMVI 15.7 µM | SR 9.73 µM | SF-268 11.1 µM | COLO 205 47.2 µM | SK-MEL-2 16 µM | TK-10 14 µM | HT-29 41.7 µM | HCT-116 12 µM | K562 11.4 µM | RPMI-8226 8.38 µM | SK-MEL-28 26.6 µM

Cc1cc(=O)c2c(O)cc3c(c2o1)CC=C(COC1OC(COC2OC(CO)C(O)C(O)C2O)C(O)C(O)C1O)CO3 (centres undefined)
inactive: UACC-257 > 100 µM | NCI-H522 > 100 µM | NCI-H226 > 100 µM | A549 > 100 µM | HCC 2998 > 100 µM | LOX IMVI > 100 µM | SR > 100 µM | SF-268 > 100 µM | COLO 205 > 100 µM | SK-MEL-2 > 100 µM | TK-10 > 100 µM | HCT-116 > 100 µM | K562 > 100 µM | SK-MEL-28 > 100 µM | Malme-3M > 100 µM

CCOc1cccc2ccc[n+](CC)c12
inactive: UACC-257 57.9 µM | NCI-H522 16.4 µM | NCI-H226 > 100 µM | A549 48.6 µM | HCC 2998 > 100 µM | LOX IMVI 91.6 µM | SF-268 12.2 µM | COLO 205 40.8 µM | TK-10 > 100 µM | HT-29 47.3 µM | HCT-116 37.1 µM | K562 25.1 µM | RPMI-8226 > 100 µM | SK-MEL-28 > 100 µM | Malme-3M > 100 µM

COc1ccc2c3c1C(=O)CCC3CO2 (centres undefined)
inactive: UACC-257 > 100 µM | NCI-H522 > 100 µM | A549 > 100 µM | HL-60 > 100 µM | HCC 2998 > 100 µM | LOX IMVI > 100 µM | SF-268 > 100 µM | COLO 205 > 100 µM | SK-MEL-2 > 100 µM | TK-10 > 100 µM | HT-29 > 100 µM | HCT-116 > 100 µM | K562 > 100 µM | RPMI-8226 > 100 µM | SK-MEL-28 > 100 µM | Malme-3M > 100 µM

Cn1cnc([N+](=O)[O-])c1SC1=NCCS1
inactive: UACC-257 72.8 µM | NCI-H522 16.7 µM | NCI-H226 > 100 µM | A549 > 100 µM | HCC 2998 > 100 µM | LOX IMVI 17.3 µM | SR 24.5 µM | SF-268 > 100 µM | COLO 205 70 µM | SK-MEL-2 47.4 µM | TK-10 > 100 µM | HT-29 > 100 µM | HCT-116 50 µM | K562 28 µM | RPMI-8226 36.7 µM | SK-MEL-28 55 µM | Malme-3M 22 µM

CC#C[I+]c1ccccc1
inactive: UACC-257 20.9 µM | NCI-H522 3.05 µM | NCI-H226 33 µM | A549 63.8 µM | HL-60 15 µM | HCC 2998 20 µM | LOX IMVI 13.8 µM | SR 15.1 µM | SF-268 19.1 µM | COLO 205 12.9 µM | SK-MEL-2 28.1 µM | TK-10 16.4 µM | HT-29 17.3 µM | HCT-116 19 µM | K562 15.8 µM | SK-MEL-28 23.6 µM | Malme-3M 18.9 µM
